Consider one compound from patent US11576897B2, “Therapeutic agent for non-motor symptoms associated with Parkinson's disease” (priority 2017, dated 2023).

In one test the target is human 5-HT2A receptor (Homo sapiens (Human), UniProt P28223). As to the kind of experiment: biochemical. The format is binding. Particulars: [3H]-ketanserin, human 5-HT2A receptor-expressed CHO cell membrane; read-out: 5-HT2A receptor binding inhibition constant Ki.
The target of test [1] is human serotonin transporter (SERT) (Homo sapiens (Human), UniProt P31645). The test is described as follows: Human serotonin transporter (SERT) binding test. Particulars: [3H]-citalopram, h-SERT/CHO cell membrane; read-out: h-SERT binding inhibition constant Ki.
In test [2] the target is serotonin 5-HT2A receptor (Rattus norvegicus (Rat), UniProt P14842). As to the kind of experiment: Rat tryptamine-induced forelimb clonic convulsion model. Format: in vivo. Particulars: orally or subcutaneously 60 minutes before tryptamine 25 mg/kg intravenously, SD-male rats.
Protocol: Test 2: Rat Tryptamine-Induced Forelimb Clonic Convulsion Model for Evaluation of In Vivo Serotonin 5-HT2A Receptor Antagonism
Evaluation was conducted in a rodent tryptamine-induced forelimb clonic convulsion model which has been known as one of the methods for assessing the serotonin 5-HT2A receptor antagonism in vivo.
Seven-week-old SD-male rats were used. A dose solution for a test compound was prepared with 0.5% methylcellulose solution or saline for a solvent. A test compound was used in the form of a dose solution obtained by mixing with 0.5% methylcellulose solution to get cloudy (for oral administration) or dissolving in saline (for subcutaneous administration). Tryptamine was used and dissolved in saline as a substance inducing clonic convulsion.
A dose solution of a test compound or a solvent only was administered orally or subcutaneously to rats at the start of the test, and after 60 minutes of the administration, a saline solution containing tryptamine 25 mg/kg was administered intravenously to rats. Rats were transferred to an observation cage right after the administration of tryptamine, and their forelimb clonic convulsion was evaluated for 3 minutes.
The average inhibition ratio of each individual calculated from the following equation was deemed to be the inhibition ratio of each administration group. Inhibition ratio of each individual=(Average score of the solvent-administered group−Score of each individual)/Average score of the solvent-administered group×100
Statistical analysis of the test results was conducted by the following procedures with Stat Preclinica (Takumi Information Technology):
1) Jonckheere-Terpstra test was conducted in the solvent-administered group and test compound-administered group with the forelimb clonic convulsion score as indicator. […] 2) Non-parametric Dunnett's multiple comparison (Joint Ranking)-measured value was conducted between the solvent-administered group and test compound-administered group with the forelimb clonic convulsion score as indicator. […]

Marks after values point to notes of the source that are not given here.

In general, Ki refers to a measure of affinity in units of concentration, obtained from inhibition or displacement. As to `CNCc1cc(OCc2cc(F)ccc2F)n(CC2CCCC2)n1.Cl` [Example 147, 1-{1-(cyclopentylmethyl)-5-[(2,5-difluorobenzyl)oxy]-1H-pyrazol-3-yl}-N-methylmethanamine], the Ki was 2.2 nM on human 5-HT2A receptor and 0.61 nM in test [1]. Also, the Inhibition ratio in test [2] (dose 1 mg/kg) was 46%; in test [2] (dose 3 mg/kg), 46%; in test [2] (dose 10 mg/kg) it was 71%**.
